Target: PfHRPII HT-GFP (HT/RLLYE-GFP)
Format: binding, Plasmodium falciparum

PI(3)P showed a Kd of over 5 µM.

Source: publication PMC3268671 (Cell, 2012)
